Results from patent US4520022A, “Substituted vinyl cephalosporins” (priority 1983, dated 1985).
Converted amounts (≈) assume the structure as drawn. Like-named read-outs stand apart in the source and are kept apart here.

Experiments:
[1] = test system: Gp Ib: S. aureus 193, BX-1633-2 A9606, A15092, Russell, A9602; details: Staphylococcus aureus
Gp, rods; Gp, cocci = experiment: microbe, parasite or virus in culture; assay type: cell-based, C. difficile; C. perfringens; P. acnes; P. anaerobius; details: read-out: MIC, Geometric Mean
S. aureus BX-1633 = experiment: Protective dose PD50, mice infected with lethal inoculum, oral treatment, S. aureus BX-1633; assay type: in vivo; details: Staphylococcus aureus, BX1633, 120 h
H. influenza A9729 = experiment: Protective dose PD50, mice infected with lethal inoculum, oral treatment, H. influenza A9729; assay type: in vivo; details: Mus musculus, 120 h
From the text: The structure activity correlations drawn from the foregoing in vitro studies are born out by the results of in vivo studies in mice. Table 4 is a tabulation of the protective doses for mice infected with a lethal inoculum of a bacteria. Two different bacteria were employed in the studies, one a Gram+ organism and the other a Gram- organism. The protective dose (PD50) is that dose which when administered to a group of infected mice results in 50% survival after five days. Normally untreated infected mice die within three days following injection of the lethal inoculum.
Protective Dose PD50 for Mice Infected with Lethal Inoculum

[2] = test system: Gp Ia, Gp Ib, Gn Ia organisms of Table 2; experiment: Test medium comparison, agar dilution MIC, Mueller-Hinton agar versus nutrient agar
S. pyogenes A20201 = experiment: Protective dose PD50, mice infected with lethal inoculum, oral treatment, S. pyogenes A20201; assay type: in vivo; details: Streptococcus pyogenes, 120 h
S. pyogenes = experiment: In vitro activity against Streptococci (MIC), S. pyogenes; assay type: cell-based; details: Streptococcus pyogenes, Compound 9 lot 2
[3] = test system: Gp Ia: S. aureus Smith A9537, A9497, Terajima, A9534, A9601; details: Staphylococcus aureus
E. coli Juhl = experiment: Protective dose, mice infected with lethal inoculum, oral treatment, E. coli Juhl; assay type: in vivo
S. pneumoniae = experiment: In vitro activity against Streptococci (MIC), S. pneumoniae; assay type: cell-based; details: Streptococcus pneumoniae, Compound 9 lot 2
S. aureus Smith = experiment: Protective dose, mice infected with lethal inoculum, oral treatment, S. aureus Smith; assay type: in vivo; details: Staphylococcus aureus, po, 120 h, oral, read-out: Protective dose (PD50), S. aureus Smith
B. fragilis = experiment: In vitro activity against anaerobes (MIC), B. fragilis; assay type: cell-based; details: Bacteroides fragilis
H. influenzae = experiment: In vitro activity against Haemophilis (MIC), H. influenzae; assay type: cell-based; details: Haemophilus influenzae, Compound 9 lot 2
N. gonorrheae = experiment: In vitro activity against Neisseria (MIC), N. gonorrheae; assay type: cell-based
P. anaerobius A21905 = experiment: In vitro activity against anaerobes (MIC), P. anaerobius; assay type: cell-based; details: Peptostreptococcus anaerobius; Gp cocci; P. anaerobius A21905; read-out: MIC
P. mirabilis A9554 = experiment: Protective dose PD50, mice infected with lethal inoculum, oral treatment, P. mirabilis A9554; assay type: in vivo
N. meningitidis = experiment: In vitro activity against Neisseria (MIC), N. meningitidis; assay type: cell-based
[4] = mouse, in vivo
P. acnes A21933 = experiment: In vitro activity against anaerobes (MIC), P. acnes; assay type: cell-based; details: Cutibacterium acnes; Gp cocci; P. acnes A21933; read-out: MIC
C. perfringens A9645 = experiment: microbe, parasite or virus in culture; assay type: cell-based; details: Clostridium perfringens
in vivo = details: mouse; for half-life: T1/2

With `C/C=C\C1=C(C(=O)O)N2C(=O)[C@@H](NC(=O)[C@H](N)c3ccc(O)cc3)[C@H]2SC1` [Compound 9, 7β-[D-2-amino-(p-hydroxyphenyl)acetamido]-3-[(Z)-1-propen-1-yl]-3-cephem-4-carboxylic Acid] the MIC ([1]; read-out: Minimum Inhibitory Concentration Gp Ib, Mueller-Hinton agar, run 1, average of five organisms) was 0.92 µg/mL (≈ 2.36 µM), the MIC ([1]; read-out: Minimum Inhibitory Concentration Gp Ib, Mueller-Hinton agar, run 2, average of five organisms) was 0.8 µg/mL (≈ 2.05 µM) and the MIC ([1]; read-out: Minimum inhibitory Concentration Gp Ib, Test Medium Comparison, A: Mueller-Hinton agar, average values) was 0.92 µg/mL (≈ 2.36 µM). For the same compound, the MIC ([1]; read-out: Minimum inhibitory Concentration Gp Ib, Test Medium Comparison, B: Nutrient agar, average values) was 0.35 µg/mL (≈ 0.899 µM), the MIC (Gp, rods; Gp, cocci) was 0.95 µg/mL (≈ 2.44 µM) and the ED50 (S. aureus BX-1633) was 2.2 mg/kg. The ED50 (H. influenza A9729) was 1.8 mg/kg, the “difference in MIC between the two media” value [2] was “less than three fold” and the ED50 (S. pyogenes A20201) was 0.11 mg/kg. The MIC (S. pyogenes; S. pyogenes A9604, read-out: MIC) was 0.05 µg/mL (≈ 0.128 µM), the MIC (S. pyogenes; S. pyogenes A15040, read-out: MIC) was 0.05 µg/mL (≈ 0.128 µM) and the MIC (S. pyogenes; S. pyogenes A20065, read-out: MIC) was 0.05 µg/mL (≈ 0.128 µM). For the same compound, the MIC (S. pyogenes; S. pyogenes A20201, read-out: MIC) was 0.1 µg/mL (≈ 0.257 µM), the MIC (S. pyogenes; S. pyogenes Dick, read-out: MIC) was 0.05 µg/mL (≈ 0.128 µM) and the MIC (S. pyogenes; S. pyogenes S-23, Dick, A9604, A20065, A15040, read-out: MIC, Geometric Mean) was 0.05 µg/mL (≈ 0.128 µM). It also gave an MIC (S. pyogenes; S. pyogenes S-23, read-out: MIC) of 0.05 µg/mL (≈ 0.128 µM), an MIC ([3]; read-out: Minimum Inhibitory Concentration Gp Ia, Mueller-Hinton agar, run 1, average of five organisms) of 0.23 µg/mL (≈ 0.591 µM) and an MIC ([3]; read-out: Minimum Inhibitory Concentration Gp Ia, Mueller-Hinton agar, run 2, average of five organisms) of 0.35 µg/mL (≈ 0.899 µM). For the same compound, the MIC ([3]; read-out: Minimum inhibitory Concentration Gp Ia, Test Medium Comparison, A: Mueller-Hinton agar, average values) was 0.23 µg/mL (≈ 0.591 µM), the MIC ([3]; read-out: Minimum inhibitory Concentration Gp Ia, Test Medium Comparison, B: Nutrient agar, average values) was 0.17 µg/mL (≈ 0.437 µM) and the ED50 (E. coli Juhl; Escherichia coli, po, 120 h, oral, 50% survival for 5 days, groups of 5 mice, read-out: Protective dose (PD50), E. coli Juhl) was 1.2 mg/kg. The “activity against the Gram- infection” value (E. coli Juhl; in words) was “more active against the Gram- infection”, the MIC (S. pneumoniae; S. pneumoniae A9585, read-out: MIC) was 0.2 µg/mL (≈ 0.514 µM) and the MIC (S. pneumoniae; S. pneumoniae A15069, read-out: MIC) was 0.2 µg/mL (≈ 0.514 µM). For the same compound, the MIC (S. pneumoniae; S. pneumoniae A20759, read-out: MIC) was 0.2 µg/mL (≈ 0.514 µM), the MIC (S. pneumoniae; S. pneumoniae Type I, read-out: MIC) was 0.2 µg/mL (≈ 0.514 µM) and the MIC (S. pneumoniae; S. pneumoniae Type II, I, III, A9585, A15069, read-out: MIC, Geometric Mean) was 0.2 µg/mL (≈ 0.514 µM). For the same compound, the MIC (S. pneumoniae; S. pneumoniae Type II, read-out: MIC) was 0.2 µg/mL (≈ 0.514 µM), the MIC (S. pneumoniae; S. pneumoniae Type III, read-out: MIC) was 0.2 µg/mL (≈ 0.514 µM) and the ED50 (S. aureus Smith; 50% survival for 5 days, groups of 5 mice) was 0.14 mg/kg. For the same compound, the ED50 (S. aureus Smith; separate run of Compound 42 and BMY28100, cephalexin/cefadroxil controls not available) was 0.16 mg/kg, the MIC (B. fragilis; B. fragilis A20928-1, A21900, A20935, β-lactamase (-), read-out: MIC, Geometric Mean) was 3.2 µg/mL (≈ 8.22 µM) and the MIC (B. fragilis; B. fragilis A20928-1, β-lactamase (-), read-out: MIC) was 0.8 µg/mL (≈ 2.05 µM). For the same compound, the MIC (B. fragilis; B. fragilis A20935, β-lactamase (-), read-out: MIC) was 0.8 µg/mL (≈ 2.05 µM), the MIC (B. fragilis; B. fragilis A21900, β-lactamase (-), clindamycin resistant, read-out: MIC) was 50 µg/mL (≈ 128 µM) and the MIC (B. fragilis; B. fragilis A22021, β-lactamase (+), read-out: MIC) was > 100 µg/mL. The MIC (B. fragilis; B. fragilis A22053, A22021, A22693, β-lactamase (+), read-out: MIC, Geometric Mean) was > 100 µg/mL, the MIC (B. fragilis; B. fragilis A22053, β-lactamase (+), read-out: MIC) was 50 µg/mL (≈ 128 µM) and the MIC (B. fragilis; B. fragilis A22533, β-lactamase (+), read-out: MIC) was > 100 µg/mL. The MIC (B. fragilis; B. fragilis A22693, β-lactamase (+), read-out: MIC) was > 100 µg/mL, the MIC (B. fragilis; B. fragilis A22695, A22533, β-lactamase (+), read-out: MIC, Geometric Mean) was > 100 µg/mL and the MIC (B. fragilis; B. fragilis A22695, β-lactamase (+), read-out: MIC) was > 100 µg/mL. For the same compound, the MIC (H. influenzae; H. influenzae A9729, read-out: MIC) was 0.8 µg/mL (≈ 2.05 µM), the MIC (H. influenzae; H. influenzae A9833, read-out: MIC) was 0.8 µg/mL (≈ 2.05 µM) and the MIC (H. influenzae; H. influenzae A20177, read-out: MIC) was 0.8 µg/mL (≈ 2.05 µM). For the same compound, the MIC (H. influenzae; H. influenzae A20193, read-out: MIC) was 0.8 µg/mL (≈ 2.05 µM), the MIC (H. influenzae; H. influenzae A21523, read-out: MIC) was 0.8 µg/mL (≈ 2.05 µM) and the MIC (H. influenzae; H. influenzae A22482, read-out: MIC) was 0.8 µg/mL (≈ 2.05 µM). The MIC (H. influenzae; H. influenzae A22483, read-out: MIC) was 0.8 µg/mL (≈ 2.05 µM), the MIC (H. influenzae; H. influenzae, seven strains above, read-out: MIC, Geometric Mean) was 0.8 µg/mL (≈ 2.05 µM) and the MIC (N. gonorrheae; N. gonorrheae A20142, Compound 9 lot 2) was 0.8 µg/mL (≈ 2.05 µM). For the same compound, the MIC (N. gonorrheae; N. gonorrheae A20143, Compound 9 lot 2) was 0.8 µg/mL (≈ 2.05 µM), the MIC (N. gonorrheae; N. gonorrheae A20154, Compound 9 lot 2) was 0.8 µg/mL (≈ 2.05 µM) and the MIC (N. gonorrheae; N. gonorrheae A20155, Compound 9 lot 2) was 0.8 µg/mL (≈ 2.05 µM). For the same compound, the MIC (N. gonorrheae; read-out: MIC) was 0.8 µg/mL (≈ 2.05 µM), the MIC (N. gonorrheae; read-out: MIC, Geometric Mean) was 0.8 µg/mL (≈ 2.05 µM) and the MIC (P. anaerobius A21905) was 0.8 µg/mL (≈ 2.05 µM). For the same compound, the “Protective Dose PD50” value (P. mirabilis A9554) was 1.8, the MIC (N. meningitidis; N. meningitidis A21487, Compound 9 lot 2) was 0.8 µg/mL (≈ 2.05 µM) and the MIC (N. meningitidis; N. meningitidis A21496, Compound 9 lot 2) was 0.8 µg/mL (≈ 2.05 µM). It also gave an MIC (N. meningitidis; N. meningitidis A21497, Compound 9 lot 2) of 0.8 µg/mL (≈ 2.05 µM), an MIC (N. meningitidis; Neisseria meningitidis, read-out: MIC) of 0.8 µg/mL (≈ 2.05 µM) and an MIC (N. meningitidis; Neisseria meningitidis, read-out: MIC, Geometric Mean) of 0.8 µg/mL (≈ 2.05 µM). For the same compound, the T1/2 ([4]; im, 20 mg/kg) was 0.48, the T1/2 ([4]; po, 20 mg/kg) was 1.7 and the T1/2 ([4]; po, 100 mg/kg) was 1.3 h. The MIC (P. acnes A21933) was 0.4 µg/mL (≈ 1.03 µM), the MIC (C. perfringens A9645) was 0.4 µg/mL (≈ 1.03 µM) and the Cmax (in vivo; im, 20 mg/kg) was 28000 ng/mL. For the same compound, the half-life (in vivo; im, 20 mg/kg) was 0.88 h, the AUC (in vivo; po, 20 mg/kg, AUC*) was 26000 ng·h/mL and the Cmax (in vivo; po, 20 mg/kg) was 15000 ng/mL. For the same compound, the half-life (in vivo; po, 20 mg/kg) was 1.9 h, the AUC (in vivo; po, 100 mg/kg, AUC) was 106000 ng·h/mL and the Cmax (in vivo; po, 100 mg/kg) was 56000 ng/mL. The half-life (in vivo; po, 100 mg/kg) was 1.9 h.
